This data set in a line: in vitro. The settings on record: rat, gh3-tre-luc cells.

Consider 60 compounds from paper PMC6792352, “Limited Chemical Structural Diversity Found to Modulate Thyroid Hormone Receptor in the Tox21 Chemical Library” (Environmental Health Perspectives, 2019).

Each structure is given as a SMILES string. Where a name gives a salt, the structure may show the parent alone. A value given as a limit tells only on which side of the number the result lay.

What is called CC50 is the concentration giving 50% cytotoxicity. Higher therefore signals lower toxicity to the cells. In the case of `COCC(=O)O` [Methoxyacetic acid], the CC50 at 24 h (AC50 (uM) modified / 1000) is more than 90 µM.
On the same count and under the same terms, for `OCCN1CCN(CC/C=C2/c3ccccc3Sc3ccc(C(F)(F)F)cc32)CC1` [cis-Flupentixol] the value was 12.1 µM; for `CC(=O)CC/C=C(\C)CC/C=C(\C)CC/C=C(\C)CCC=C(C)C` [Teprenone], more than 50 µM.
With `N#CCCCCC#N` [Hexanedinitrile], where the note is “AC50 (uM) modified / 1000”, the CC50 at 24 h is more than 90 µM.
Still for that read-out and setting: for `Cc1nc(C)nc(N2C[C@@H](C)N(c3ccnc([C@@H](C)O)n3)[C@@H](C)C2)n1` [CP-642931] the value was more than 50 µM; for `CC(=O)Oc1ccc(C(c2ccc(OC(C)=O)cc2)c2ccccn2)cc1` [Bisacodyl], more than 90 µM; for `c1ccc2c(c1)Oc1ccccc1S2` [Phenoxathiin], more than 90 µM.
Still for that read-out and setting: for `CCCCCCCCN(C)CCCCCCCC` [N-Methyldioctylamine] the value was more than 90 µM; for `CC(NN)c1ccccc1` (stereo not drawn) [Mebanazine], more than 50 µM; for `CN1C(=O)COc2c(C(=O)NC3CN4CCC3CC4)cc(Cl)cc21` (stereo not drawn) [Azasetron], 42.1 µM.
Still for that read-out and setting: for `CCN(CC)CCO[C@H]1CC[C@@]2(C)C(=CC[C@@H]3[C@@H]2CC[C@]2(C)C(=O)CC[C@@H]32)C1` [3beta-(2-Diethylaminoethoxy)androst-5-en-17-one hydrochloride] the value was more than 50 µM; for `CCCC(Cn1cncn1)c1ccc(Cl)cc1Cl` (stereo not drawn) [Penconazole], 78.4 µM.
`N#Cc1c(Cl)cccc1Cl` [Dichlobenil]: the CC50 at 24 h (AC50 (uM) modified / 1000) was more than 90 µM.
`CO[C@@H]1[C@H](O)C[C@@H](O[C@@H]2C[C@H](Oc3cc4cc5c(c(O)c4c(O)c3C)C(=O)[C@@H](O[C@H]3C[C@@H](O[C@H]4C[C@@H](O[C@H]6C[C@](C)(O)[C@@H](OC(C)=O)[C@H](C)O6)[C@H](O)[C@@H](C)O4)[C@H](O)[C@@H](C)O3)[C@H]([C@H](OC)C(=O)[C@@H](O)[C@@H](C)O)C5)O[C@H](C)[C@@H]2OC(C)=O)O[C@@H]1C` [Chromomycin A3] came in with a CC50 at 24 h (AC50 (uM) modified / 1000, Tox21_110001=Tox21_112065, viability, 1 nM T3 present, 24 h) of 0.366 µM.
Turning to `C1CCN(CN2CCCCC2)CC1` [Dipiperidinomethane], for the setting “AC50 (uM) modified / 1000”, the CC50 at 24 h is more than 90 µM.
Same read-out and setting: for `CC(C)CC(C)O` (stereo not drawn) [4-Methyl-2-pentanol] the value was more than 90 µM; for `CCc1cccc(CC)c1NC(=O)CN(CC(=O)O)CC(=O)O` [Etifenin], more than 20 µM.
On the same count and under the same terms, for `CCOC(=O)CCC(C)=O` [Ethyl levulinate] the value was more than 90 µM.
On the same count and under the same terms, for `NC(=O)N1c2ccccc2C=Cc2ccccc21` [Carbamazepine] the value was more than 90 µM; for `Cc1cccc(OCCOc2cccc(C)c2)c1` [1,1'-[Ethane-1,2-diylbis(oxy)]bis(3-methylbenzene)], more than 100 µM.
As for `Cc1c(C2(c3cc(Br)c(O)c(Br)c3C)OS(=O)(=O)c3ccccc32)cc(Br)c(O)c1Br` [Bromcresol green], where the note is “AC50 (uM) modified / 1000”, it took 45.4 µM to reach half-maximal cytotoxicity (CC50 at 24 h).
As for `Clc1ccccc1-c1ccccc1Cl` [2,2'-Dichlorobiphenyl], under “AC50 (uM) modified / 1000, Tox21_110001=Tox21_202244, viability, 1 nM T3 present, 24 h”, the CC50 at 24 h was more than 100 µM.
The compound `O=C(O)c1cc(C(=O)O)c(C(=O)O)cc1C(=O)O` [Pyromellitic acid] had a CC50 at 24 h (AC50 (uM) modified / 1000) of more than 90 µM.
The same measure, in the same setting: for `COP(=S)(OC)Oc1ccc(SC)c(C)c1` [Fenthion] the value was more than 90 µM; for `ClC(Cl)(Br)Br` [Dibromodichloromethane], more than 90 µM.
In turn, `OC(C#CCN1CCCC1)(c1ccccc1)c1ccccc1` [Butinoline] displayed a CC50 at 24 h (AC50 (uM) modified / 1000) of 35.3 µM.
Under “AC50 (uM) modified / 1000, Tox21_110001=Tox21_201783, viability, 1 nM T3 present, 24 h”, `C/C=C/c1ccc2c(c1)OCO2` [Isosafrole] yielded a CC50 at 24 h of more than 90 µM.
Under “AC50 (uM) modified / 1000”, `CCN(CC)CCNC(=O)c1ccc(NC(C)=O)cc1` [Acecainide hydrochloride] had a CC50 at 24 h of more than 50 µM.
For the compound `CC(C)=CCC/C(C)=C/CC/C(C)=C/CCC(=O)OC/C=C(\C)CCC=C(C)C` [Gefarnate], under “AC50 (uM) modified / 1000”, the CC50 at 24 h is more than 50 µM.
As to `C1CCC2(CCCCO2)OC1` [1,7-Dioxaspiro[5.5]undecane], the CC50 at 24 h (AC50 (uM) modified / 1000) is more than 90 µM.
On the same count and under the same terms, for `CCCCCO` [1-Pentanol] the value was more than 90 µM.
`OCCCBr` [3-Bromo-1-propanol] gave a CC50 at 24 h (AC50 (uM) modified / 1000, Tox21_110001=Tox21_400042, viability, 1 nM T3 present, 24 h) of more than 90 µM.
As to `CCCCC(CC)CN` (stereo not drawn) [2-Ethylhexylamine], the CC50 at 24 h (AC50 (uM) modified / 1000) was more than 90 µM.
For the compound `CC(C)C(=O)O` [2-Methylpropanoic acid], the CC50 at 24 h (AC50 (uM) modified / 1000) is more than 90 µM.
The same measure, in the same setting: for `CNC(=O)c1c(I)c(C(=O)NCC(=O)Nc2c(I)c(C(=O)O)c(I)c(C(=O)NCCO)c2I)c(I)c(N(C)C(C)=O)c1I` [Ioxaglic acid] the value was more than 50 µM; for `CN1CCN(c2ccccc2/C=C2\SCCN(c3ccc(Cl)c(Cl)c3)C2=O)CC1` [Elzasonan], 8.33 µM.
Still for that read-out and setting: for `C[C@@H](O)[C@H]1C(=O)N2C(C(=O)O)=C([C@H]3CCCO3)S[C@H]12` [Fropenem] the value was more than 50 µM.
Still for that read-out and setting: for `CCc1nccnc1C` [3-Ethyl-2-methylpyrazine] the value was more than 90 µM; for `NC(=O)c1cccc([N+](=O)[O-])c1` [3-Nitrobenzamide], more than 90 µM.
`C1N2CN3CN1CN(C2)C3` [Methenamine]: the CC50 at 24 h (AC50 (uM) modified / 1000) was more than 50 µM.
Compound `CN(CCCN1c2ccccc2CCc2ccccc21)CC(=O)c1ccc(Cl)cc1` [Lofepramine hydrochloride] yielded a CC50 at 24 h (AC50 (uM) modified / 1000) of 22 µM.
The same measure, in the same setting: for `COc1ccc(C(=CC(=O)N2CCOCC2)c2ccc(Cl)cc2)cc1OC` [Dimethomorph] the value was more than 90 µM.
The compound `O=C(O)CCl` [Chloroacetic acid] returned a CC50 at 24 h (AC50 (uM) modified / 1000, Tox21_110001=Tox21_201114, viability, 1 nM T3 present, 24 h) of more than 90 µM.
On to `Cc1cccc(Nc2cc(Cl)nc(SCC(=O)O)n2)c1C` [Pirinixic acid], for which, under “AC50 (uM) modified / 1000”, the CC50 at 24 h is more than 90 µM.
Same read-out and setting: for `CCCCCCOC(=O)c1ccccc1` [Hexyl benzoate] the value was more than 90 µM; for `CC1(C)CCC(C)(C)c2cc(NC(=O)c3ccc(C(=O)O)cc3)ccc21` [Tamibarotene], 15.4 µM; for `CC(=O)Nc1ccc(S(=O)(=O)Nc2cc(C)on2)cc1` [N-Acetyl sulfamethoxazole], more than 50 µM.
On the same count and under the same terms, for `CC(=O)CCCCn1c(=O)c2c(ncn2C)n(C)c1=O` [Pentoxifylline] the value was more than 20 µM; for `CCOC(=O)CC(O)(CC(=O)OCC)C(=O)OCC` [Triethyl citrate], more than 90 µM.
On the same count and under the same terms, for `Clc1ccccn1` [2-Chloropyridine] the value was more than 90 µM; for `CC1COC(Cn2cncn2)(c2ccc(Oc3ccc(Cl)cc3)cc2Cl)O1` (stereo not drawn) [Difenoconazole], 41.3 µM; for `Cc1ccc(N(SC(F)(Cl)Cl)S(=O)(=O)N(C)C)cc1` [Tolylfluanid], 3.13 µM.
In the case of `O=C1C(I)=CC(=C(c2cc(I)c(O)c(I)c2)c2ccccc2C(=O)O)C=C1I` [Iodophthalein sodium], the CC50 at 24 h (AC50 (uM) modified / 1000) is 41.3 µM. Against the preceding compound, the CC50 at 24 h is about 13-fold higher.
Still for that read-out and setting: for `CC1(C)NC(=O)NC1=O` [5,5-Dimethylhydantoin] the value was more than 90 µM; for `Cc1ccccc1` [Toluene], more than 90 µM.
In the case of `CCCCCCCCCC[N+](C)(CCCCCCCCCC)CCC[Si](OC)(OC)OC` [Disiquonium chloride], it took 25.6 µM to reach half-maximal cytotoxicity (AC50 (uM) modified / 1000) (CC50 at 24 h). This lies in the double-digit micromolar range.
Same read-out and setting: for `Cc1ccc([N+](=O)[O-])cc1N` [2-Methyl-5-nitroaniline] the value was more than 90 µM.
For `COP(=O)(NC(C)=O)SC` (stereo not drawn) [Acephate], the CC50 at 24 h (AC50 (uM) modified / 1000, Tox21_110001=Tox21_202204, viability, 1 nM T3 present, 24 h) was more than 90 µM.
With `Clc1cc(Cl)nc(Cl)n1` [2,4,6-Trichloropyrimidine], the CC50 at 24 h (AC50 (uM) modified / 1000) is more than 90 µM.
The same measure, in the same setting: for `Cc1ccc(Cl)cc1N` [5-Chloro-2-methylaniline] the value was more than 90 µM.
